Assay results published in PMC6380468, “Investigations on small molecule inhibitors targeting the histone H3K4 tri-methyllysine binding PHD-finger of JmjC histone demethylases” (Bioorganic & Medicinal Chemistry, 2018).

Assays:
KDM7A (PHD-JmjC) = assay: MALDI-TOF MS H3K9me2 demethylation assay, KDM7A(PHD-JmjC); type: biochemical, human; conditions: at 100 µM, substrate H3(1–15)K9me2
Protocol: Final concentrations were: 1mM ascorbate, 50 µM (NH4)2Fe(II)(SO4)2 and 200 µM 2OG. The mixture was quenched using formic acid after 10 minutes (KDM7A) or 5 minutes (KDM7B).

KDM7B (PHD-JmjC) = molecular target: T1, KDM7B (PHD-JmjC) (Homo sapiens, UniProt Q9UPP1); assay: AlphaScreen displacement of H3K4me3-Bn from His-KDM7B(PHD-JmjC); type: binding; conditions: AlphaScreen displacement of H3K4me3-Bn; n = 3; NI = No inhibition seen at 100 μM; read-out: IC50 KDM7B (PHD-JmjC) (Displacement)
T1 construct: A dual-domain construct of KDM7A/B(PHD-JmjC), consisting of a JmjC domain in addition to the PHD-finger; His; made in house
T1 sequence (Q9UPP1 37-483 limits assumed): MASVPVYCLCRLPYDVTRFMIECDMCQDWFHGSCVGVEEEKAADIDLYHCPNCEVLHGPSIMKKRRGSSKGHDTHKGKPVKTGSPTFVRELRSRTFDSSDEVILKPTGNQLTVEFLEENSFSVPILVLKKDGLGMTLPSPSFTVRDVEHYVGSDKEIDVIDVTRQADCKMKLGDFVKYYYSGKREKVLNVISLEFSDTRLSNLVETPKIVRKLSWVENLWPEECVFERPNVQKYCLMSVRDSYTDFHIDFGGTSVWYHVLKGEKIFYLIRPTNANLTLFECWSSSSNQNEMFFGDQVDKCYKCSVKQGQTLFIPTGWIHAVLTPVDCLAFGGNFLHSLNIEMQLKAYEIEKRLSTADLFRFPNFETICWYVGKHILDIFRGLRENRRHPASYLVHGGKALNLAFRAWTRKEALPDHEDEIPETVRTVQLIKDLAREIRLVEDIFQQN
Protocol: A dual-domain construct of KDM7A/B(PHD-JmjC), consisting of a JmjC domain in addition to the PHD-finger (Fig. 1B), was used to test for allosteric inhibition through binding at the PHD-finger.
For peptide displacement assays, 5 µL of the inhibitor dilution series (at a concentration of 4% DMSO in AlphaScreen assay buffer) was pre-incubated with 5 µL of the protein at RT for 15 minutes. Peptide solution (5 µL) was added and incubated for 30 minutes at RT, followed by the addition of 5 µL of a mixture of AlphaScreen Streptavidin donor beads and Nickel Chelate acceptor beads in AlphaScreen assay buffer (20 µg/mL final). The contents were incubated for 60-120 minutes at RT in the dark, followed by measurement of luminescence on a BMG Labtech Pherastar plate reader (Software Ver. 5.30 R3, Firmware Ver. 1.21). The data was plotted in Prism Ver 7.01 (GraphPad Software, Inc.) and fitted to a Log(inhibitor) v/s response – variable slope model in order to obtain IC50 values.

KDM5A_c2 = molecular target: T2, KDM5A_c2 (Homo sapiens, UniProt P29375); assay: Formaldehyde dehydrogenase (FDH) enzyme-coupled fluorescence assay, kinetic analysis; type: biochemical
T2 sequence (P29375 with tags, fused parts or gaps): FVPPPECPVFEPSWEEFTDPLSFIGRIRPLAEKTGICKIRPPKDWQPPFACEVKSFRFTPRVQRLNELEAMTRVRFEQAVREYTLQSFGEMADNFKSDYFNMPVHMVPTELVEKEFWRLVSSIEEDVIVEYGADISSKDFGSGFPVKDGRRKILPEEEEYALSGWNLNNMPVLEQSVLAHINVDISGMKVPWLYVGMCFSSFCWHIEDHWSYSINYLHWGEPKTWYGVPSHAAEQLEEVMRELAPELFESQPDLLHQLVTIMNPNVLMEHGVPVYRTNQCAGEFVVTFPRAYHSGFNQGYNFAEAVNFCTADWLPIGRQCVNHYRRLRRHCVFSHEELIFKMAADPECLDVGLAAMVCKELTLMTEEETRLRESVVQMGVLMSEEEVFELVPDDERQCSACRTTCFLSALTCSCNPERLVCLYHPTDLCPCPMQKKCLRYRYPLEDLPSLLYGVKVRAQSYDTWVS
Protocol: Enzyme mixture (25 µL) containing KDM5A-c2 (0.5 µM) and FDH (2.0 µM) in FDH buffer [50mM HEPES (50 mM), Tween20 (0.1%), NaCl (50 mM), pH 7.5 in MQ)] was prepared and aliquoted in a 384-well flat-bottom microplate (µClear, Greiner). The peptide mixture (25 µL) [ascorbate (2 mM), (NH4)2Fe(II)(SO4)2 (100 µM), 2OG (400 µM), H3(1-21)K4me3 peptide (ranging from 0 to 100 µM), β-NAD (500 µM), 2a (0 to 160 µM, in DMSO (2% final in this solution)) in FDH buffer] was added to initiate the reaction and the fluorescence was monitored (every 30 seconds over 25 min at 25.0 °C) using the PHERAstar (BMG LABTECH). The initial rates at each peptide concentrations were used to generate the Michaelis-Menten plots. Combined datasets from two independent experiments were globally fitted to a mixed inhibition model using Prism Ver 7.01, and Ki and α values were determined. Lineweaver-Burk plots were also generated using Prism Ver 7.01

[1] = KDM5A_c2, mixed inhibition model, with respect to H3K4me3 substrate, N=2

Question: How did the “KDM7A (PHD-JmjC) (Catalytic), inhibition of H3K9me2 demethylation” value (KDM7A (PHD-JmjC)) turn out when `CCCCc1oc2ccccc2c1C(=O)c1ccc(OCCCN(C)C)cc1` [Compound 1a, (2-Butylbenzofuran-3-yl)(4-(3-(dimethylamino)propoxy)phenyl)methanone] was run?
Answer: 100% (100 µM)

Question: What about the IC50 (KDM7B (PHD-JmjC)) of the same compound?
Answer: > 100 µM

Question: Which results are given for `CCCCc1oc2ccccc2c1C(=O)c1ccc(OCCC[N+](C)(C)C)cc1.[I-]` [Compound 2a, 3-(4-(2-Butylbenzofuran-3-carbonyl)phenoxy)-N,N,N-trimethylpropan-1-aminium iodide]?
Answer: KDM7A (PHD-JmjC) (Catalytic), inhibition of H3K9me2 demethylation (KDM7A (PHD-JmjC)): 100% (100 µM); IC50 (KDM7B (PHD-JmjC)): 120 ± 32 µM; substrate of KDM5A_c2 (formaldehyde production in the absence of H3K4me3) (KDM5A_c2; FDH coupled assay, no H3K4me3): not a substrate; mode of inhibition with respect to H3K4me3 (KDM5A_c2; KDM5A_c2, Lineweaver-Burk plots): non-competitive; Ki (KDM5A_c2; [1]): 74 ± 28 µM; α (KDM5A_c2; [1]): 1.64 ± 0.85
